Measured values from ChEMBL document CHEMBL1159329, “Microbial transformations of isosteviol” (2002).

Tested on: Rattus norvegicus
Assay: Antihypertensive activity in deoxy-corticosterone acetate-induced Sprague-Dawley rat assessed as reduction of blood pressure at 4.8 mg/kg, iv
Assay type: functional

Compound	Activity
C[C@@]12CC[C@]3(O)[C@@](CC[C@@H]4[C@](C)(C(=O)O)CCC[C@]43C)(CC1=O)C2	7 mmHg
C[C@@]12CC[C@@H]3[C@@](CC[C@H]4[C@@]3(C)CCC[C@@]4(C)C(=O)O)(CC1=O)C2 [ISOSTEVIOL]	12 mmHg
